Earlier results as cited in US20210077417A1, “Methods and Compositions Particularly for Treatment of Attention Deficit Disorder” (Purdue Pharma L.P., priority 2018, published 2021).
Where a name gives a salt, the structure may show the parent alone. Read-outs that look alike come from different tables or passages of the source.

Key:
[1] = test system: patients with ADHD; details: reported

COC(=O)C(c1ccccc1)C1CCCCN1 (racemic) [Methylphenidate, dl-threo-methyl-2-phenyl-2-(2-piperidyl)acetate]
Stability (acidic solutions): relatively stable | Degradation amount (hydrolysis of the methyl ester) (as the pH increases to 8.9): up to 100% | Stability (basic solutions): degraded extensively

COC(=O)C(c1ccccc1)C1CCCCN1 (stereo not shown) [Methylphenidate hydrochloride]
Solubility (in acetone): slightly soluble | Solubility (in alcohol): soluble | Solubility (in chloroform): slightly soluble | Solubility (in methanol): freely soluble | Solubility (in water): freely soluble

lisdexamfetamine dimesylate
Duration of action [1]: up to 14 hours | Onset of action [1]: does not have a rapid onset of action
